Measured values: ChEMBL document CHEMBL5550203, “A Comprehensive In Vitro Characterization of a New Class of Indole-Based Compounds Developed as Selective Haspin Inhibitors” (J Med Chem, 2024)

Key:
[1] = rat, plasma, 2 h, 10 µM
Description: Stability in rat plasma at 10 uM measured upto 120 mins by LC-MS analysis

physchem [2] = conditions: simulated intestinal fluid
Description: Chemical stability in stimulated intestinal fluid assessed as compound remaining at 10 uM measured upto 120 mins by LC-MS analysis

physchem [3] = conditions: simulated gastric fluid
Description: Chemical stability in stimulated gastric fluid assessed as compound remaining at 10 uM measured upto 120 mins by LC-MS analysis

[4] = human, plasma, 2 h, 10 µM
Description: Stability in human plasma at 10 uM measured upto 120 mins by LC-MS analysis

[5] = human, microsomes, 1 h

Cc1ccc(NC(=O)c2ccc3c(c2)c(CNCCN2CCNCC2)cn3C)cc1C
Stability [1]: Stable
remaining at 2 h, 10 µM (physchem [2]): > 80%
remaining at 2 h, 10 µM (physchem [3]): > 80%
Stability [4]: Stable
Stability [5]: Stable
